{"source": "patent US20090053721A1", "about": "“VOLTAGE-GATED ION CHANNEL MUTANTS FOR USE IN IDENTIFYING ION CHANNEL MODULATING COMPOUNDS” (CARDIOME PHARMA CORP., priority 2007, published 2009)", "assay_type_in_all_cases": "cell-based", "key": {"[1]": {"molecular_target": "T1, Kv1.5 I502A mutant channel (Homo sapiens, UniProt P22460, I502A)", "T1 construct": "subcloned as a fragment back into full-length Kv1.5; expressed in transfected cells; host or cells: HEK293, transient transfection", "T1 sequence (P22460 whole entry I502A, the tested form may be a part)": "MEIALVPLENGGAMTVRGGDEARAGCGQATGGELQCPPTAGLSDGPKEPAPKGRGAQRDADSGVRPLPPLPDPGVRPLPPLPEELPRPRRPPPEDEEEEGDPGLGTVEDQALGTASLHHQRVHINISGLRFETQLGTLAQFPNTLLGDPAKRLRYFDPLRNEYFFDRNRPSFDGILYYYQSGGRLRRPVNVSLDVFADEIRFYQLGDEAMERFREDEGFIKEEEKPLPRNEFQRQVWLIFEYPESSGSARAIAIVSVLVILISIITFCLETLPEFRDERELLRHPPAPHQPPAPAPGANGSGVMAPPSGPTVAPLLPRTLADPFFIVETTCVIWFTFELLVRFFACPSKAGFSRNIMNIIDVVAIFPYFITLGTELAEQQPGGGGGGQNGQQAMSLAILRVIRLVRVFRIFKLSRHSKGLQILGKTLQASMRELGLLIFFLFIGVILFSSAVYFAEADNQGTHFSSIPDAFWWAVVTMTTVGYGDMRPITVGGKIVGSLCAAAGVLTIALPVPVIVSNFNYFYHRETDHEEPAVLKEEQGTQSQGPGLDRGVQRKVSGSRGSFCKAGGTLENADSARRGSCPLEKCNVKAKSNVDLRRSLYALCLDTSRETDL", "assay": "Whole-cell patch-clamp block of mutant Kv1.5 current in HEK293 cells", "settings": "for Fold change: IC50 of I502A relative to WT, decrease in potency", "description": "(§1) Stable lines of HEK293 cells expressing Kv1.5, or transient transfection of mutant Kv1.5 channels were used in all experiments. […] (Coralville, Iowa, USA), and mutants were generated using the Stratagene Quikchange kit (Stratagene, Calif., USA). […] This was added to the cells for overnight incubation after washing the media with 900 μl of MEM with 10% FBS. […] Media contained 10% bovine serum and 0.5 mg/ml geneticin for stable lines. On the day before recording, stably-expressing cells were washed with MEM, treated with trypsin/EGTA for one minute and plated on 25 mm^2 coverslips. All cell culture supplies were obtained from Invitrogen (Mississauga, ON, Canada). Control bath solution contained (in mM): 5 KCl, 135 NaCl, 2.8 sodium acetate, 1 MgCl2, 10 HEPES and 1 CaCl2, adjusted to pH 7.4 with NaOH. Patch pipettes contained (in mM): 130 KCl, 5 EGTA, 1 MgCl2, 10 HEPES, 4 Na2ATP, and 0.1 GTP, adjusted to pH 7.2 with KOH. All chemicals used to make solutions were obtained from Sigma-Aldrich (Mississauga, ON, Canada). […] (Vancouver, BC, Canada) and prepared as a stock solution (50 mM) in H2O. […] DMSO concentrations for either drug never exceeded 0.1% v/v in the final experimental solutions. Coverslips with adherent cells plated on the surface were placed in a superfusion chamber (volume 300 μl) containing the control bath solution at 22° C. Whole-cell current recording and analysis were carried out using an Axopatch 200B amplifier and pClamp10 software (Axon Instruments, CA, USA). Patch electrodes were pulled from thin-walled borosilicate glass (World Precision Instruments, FL, USA) on a horizontal micropipette puller (Sutter Instruments, CA, USA). […] Analogue capacity compensation and 80% series resistance compensation were used during whole cell measurements. Membrane potentials were not corrected for junction potentials that arise between the pipette and bath solution. […] Data were sampled at 10-20 kHz and filtered at 5 to 10 kHz. […] Data are represented as mean±SE unless otherwise specified. For significance of differences, * represents p<0.05, ** p<0.01; statistical analysis was conducted using Student's t-test (unpaired). Clampfit software (Axon Instruments, CA, USA) was used to analyze current traces. Data from each test pulse (currents in the presence of drug) were normalized to control test pulse currents obtained before drug exposure. […] IC50 is the concentration producing half-maximal inhibition; and n is the Hill coefficient."}, "[2]": {"molecular_target": "T2, Kv1.5 I502F mutant channel (Homo sapiens, UniProt P22460, I502F)", "T2 construct": "subcloned as a fragment back into full-length Kv1.5; expressed in transfected cells; host or cells: HEK293, transient transfection", "T2 sequence (P22460 whole entry I502F, the tested form may be a part)": "as the sequence (P22460 whole entry I502A, the tested form may be a part) above, with A502F counted along it", "assay": "Whole-cell patch-clamp block of mutant Kv1.5 current in HEK293 cells", "description": "as §1"}, "[3]": {"molecular_target": "T3, Kv1.5 I502L mutant channel (Homo sapiens, UniProt P22460, I502L)", "T3 construct": "subcloned as a fragment back into full-length Kv1.5; expressed in transfected cells; host or cells: HEK293, transient transfection", "T3 sequence (P22460 whole entry I502L, the tested form may be a part)": "as the sequence (P22460 whole entry I502A, the tested form may be a part) above, with A502L counted along it", "assay": "Whole-cell patch-clamp block of mutant Kv1.5 current in HEK293 cells", "description": "as §1"}, "[4]": {"molecular_target": "T4, Kv1.5 I508A mutant channel (Homo sapiens, UniProt P22460, I508A)", "T4 construct": "subcloned as a fragment back into full-length Kv1.5; expressed in transfected cells; host or cells: HEK293, transient transfection", "T4 sequence (P22460 whole entry I508A, the tested form may be a part)": "as the sequence (P22460 whole entry I502A, the tested form may be a part) above, with A502I, I508A counted along it", "assay": "Whole-cell patch-clamp block of mutant Kv1.5 current in HEK293 cells", "settings": "for Fold change: IC50 of I508A relative to WT, vernakalant potency reduced, flecainide potency increased", "description": "as §1"}, "[5]": {"molecular_target": "T5, Kv1.5 I508F mutant channel (Homo sapiens, UniProt P22460, I508F)", "T5 construct": "subcloned as a fragment back into full-length Kv1.5; expressed in transfected cells; host or cells: HEK293, transient transfection", "T5 sequence (P22460 whole entry I508F, the tested form may be a part)": "as the sequence (P22460 whole entry I502A, the tested form may be a part) above, with A502I, I508F counted along it", "assay": "Whole-cell patch-clamp block of mutant Kv1.5 current in HEK293 cells", "description": "as §1"}, "[6]": {"molecular_target": "T6, Kv1.5 T479A mutant channel (Homo sapiens, UniProt P22460, T479A)", "T6 construct": "subcloned as a fragment back into full-length Kv1.5; expressed in transfected cells; host or cells: HEK293, transient transfection", "T6 sequence (P22460 whole entry T479A, the tested form may be a part)": "as the sequence (P22460 whole entry I502A, the tested form may be a part) above, with T479A, A502I counted along it", "assay": "Whole-cell patch-clamp block of mutant Kv1.5 current in HEK293 cells", "settings": "for Fold change: IC50 of T479A relative to WT, potency increased", "description": "as §1"}, "[7]": {"molecular_target": "T7, Kv1.5 V505A mutant channel (Homo sapiens, UniProt P22460, V505A)", "T7 construct": "subcloned as a fragment back into full-length Kv1.5; expressed in transfected cells; host or cells: HEK293, transient transfection", "T7 sequence (P22460 whole entry V505A, the tested form may be a part)": "as the sequence (P22460 whole entry I502A, the tested form may be a part) above, with A502I, V505A counted along it", "assay": "Whole-cell patch-clamp block of mutant Kv1.5 current in HEK293 cells", "settings": "for Fold change: IC50 of V505A relative to WT, vernakalant potency reduced, flecainide potency increased", "description": "as §1"}, "[8]": {"molecular_target": "T8, Kv1.5 V505F mutant channel (Homo sapiens, UniProt P22460, V505F)", "T8 construct": "subcloned as a fragment back into full-length Kv1.5; expressed in transfected cells; host or cells: HEK293, transient transfection", "T8 sequence (P22460 whole entry V505F, the tested form may be a part)": "as the sequence (P22460 whole entry I502A, the tested form may be a part) above, with A502I, V505F counted along it", "assay": "Whole-cell patch-clamp block of mutant Kv1.5 current in HEK293 cells", "description": "as §1"}, "Kv1.5 WT channel": {"molecular_target": "T9, Kv1.5 WT channel (Homo sapiens, UniProt P22460)", "T9 construct": "subcloned as a fragment back into full-length Kv1.5; expressed in transfected cells", "assay": "Voltage-dependence of block (Woodhull fit), wild-type Kv1.5", "settings": "for blocking site, electrical distance across the membrane: Woodhull fit, +10 to +60 mV; for calculated binding site within the electric field (fractional electrical distance δ): from the inside of the pore", "description": "Coverslips with adherent cells plated on the surface were placed in a superfusion chamber (volume 300 μl) containing the control bath solution at 22° C. Whole-cell current recording and analysis were carried out using an Axopatch 200B amplifier and pClamp10 software (Axon Instruments, CA, USA). Patch electrodes were pulled from thin-walled borosilicate glass (World Precision Instruments, FL, USA) on a horizontal micropipette puller (Sutter Instruments, CA, USA). […] Analogue capacity compensation and 80% series resistance compensation were used during whole cell measurements. Membrane potentials were not corrected for junction potentials that arise between the pipette and bath solution. For Kv1.5 current recordings, a holding potential of −80 mV was used. Data were sampled at 10-20 kHz and filtered at 5 to 10 kHz. To assess drug block, half-log escalating concentrations of drug were added to the flowing bath solution and current traces were recorded with 400 ms depolarizing pulses to +60 mV at a frequency of 0.1 Hz.\nf=[D]/([D]+Kd*e^−δzFE/RT)\nwhere F, R, z and T have their usual meanings, δ represents the fractional electrical distance, i.e., the fraction of the transmembrane electrical field sensed by a single charge at the receptor site. Kd* represents the binding affinity at the reference voltage (0 mV). The current amplitude (Idrug and Icontrol) was measured at the end of a 400 ms depolarization.\nThe amount of block was measured at the end of the pulse at the time indicated by the arrow on each set of data records, and, after normalization to the control, current density was plotted as a function of the depolarization potential (FIGS. 7B, 8B). Data were then fit to a standard model of drug block to obtain the electrical distance of the blocking site into the electric field from the inside of the channel (Woodhull, 1973)."}}, "note": "Where “and” joins values, the source holds several entries; their conditions need not be identical. Identical values can stand only once. Counter-ions that a name gives are not always drawn.", "data": [{"compound": "COc1ccc(CCO[C@@H]2CCCC[C@H]2N2CC[C@@H](O)C2)cc1OC", "note": "[Vernakalant, 3-Pyrrolidinol, 1-[(1R,2R)-2-[2-(3,4-dimethoxyphenyl)ethoxy]cyclohexyl]-,hydrochloride, (3R)]", "values": [{"measurement": "Hill coefficient", "setting": "[1]; Kv1.5 I502A", "result": 0.65}, {"measurement": "Fractional Block ± SEM", "setting": "[1]; Kv1.5 I502A, 10 μM vernakalant", "result": "0.07 ± 0.03"}, {"measurement": "Hill coefficient", "setting": "[2]; Kv1.5 I502F", "result": 0.84}, {"measurement": "Fractional Block ± SEM", "setting": "[2]; Kv1.5 I502F, 10 μM vernakalant", "result": "0.10 ± 0.01"}, {"measurement": "Hill coefficient", "setting": "[3]; Kv1.5 I502L", "result": 0.96}, {"measurement": "Fractional Block ± SEM", "setting": "[3]; Kv1.5 I502L, 10 μM vernakalant", "result": "0.33 ± 0.07"}, {"measurement": "Hill coefficient", "setting": "[4]; Kv1.5 I508A", "result": 0.87}, {"measurement": "Fractional Block ± SEM", "setting": "[4]; Kv1.5 I508A, 10 μM vernakalant", "result": "0.21 ± 0.03"}, {"measurement": "Hill coefficient", "setting": "[5]; Kv1.5 I508F", "result": 1.23}, {"measurement": "Fractional Block ± SEM", "setting": "[5]; Kv1.5 I508F, 10 μM vernakalant", "result": "0.94 ± 0.02"}, {"measurement": "Hill coefficient", "setting": "[6]; Kv1.5 T479A", "result": 0.6}, {"measurement": "Fractional Block ± SEM", "setting": "[6]; Kv1.5 T479A, 10 μM vernakalant", "result": "0.77 ± 0.05"}, {"measurement": "Hill coefficient", "setting": "[7]; Kv1.5 V505A", "result": 0.95}, {"measurement": "Fractional Block ± SEM", "setting": "[7]; Kv1.5 V505A, 10 μM vernakalant", "result": "0.21 ± 0.04"}, {"measurement": "Hill coefficient", "setting": "[8]; Kv1.5 V505F", "result": 0.96}, {"measurement": "Fractional Block ± SEM", "setting": "[8]; Kv1.5 V505F, 10 μM vernakalant", "result": "0.27 ± 0.05"}, {"measurement": "blocking site, electrical distance across the membrane", "setting": "Kv1.5 WT channel", "result": "~17", "unit": "%"}, {"measurement": "calculated binding site within the electric field (fractional electrical distance δ)", "setting": "Kv1.5 WT channel", "result": 0.17}]}, {"compound": "O=C(NCC1CCCCN1)c1cc(OCC(F)(F)F)ccc1OCC(F)(F)F", "note": "(stereo not shown) [Flecainide]", "values": [{"measurement": "Fold change", "setting": "[1]", "result": 2.43}, {"measurement": "Fold change", "setting": "[1]; listed as flecamide", "result": 2.4}, {"measurement": "IC50", "setting": "[1]; Kv1.5 I502A", "result": 92, "unit": "µM"}, {"measurement": "Fold change", "setting": "[2]; IC50 of I502F relative to WT", "result": 4.13}, {"measurement": "IC50", "setting": "[2]; Kv1.5 I502F", "result": "164 ± 31.4", "unit": "µM"}, {"measurement": "Fold change", "setting": "[3]; IC50 of I502L relative to WT, direction differs by drug", "result": 3.55}, {"measurement": "IC50", "setting": "[3]; Kv1.5 I502L", "result": "10.8 ± 1.09", "unit": "µM"}, {"measurement": "Fold change", "setting": "[4]", "result": 5.15}, {"measurement": "Fold change", "setting": "[4]; listed as flecamide", "result": 5.2}, {"measurement": "IC50", "setting": "[4]; Kv1.5 I508A", "result": "7.39 ± 0.92", "unit": "µM"}, {"measurement": "Fold change", "setting": "[5]; IC50 of I508F relative to WT, direction differs by drug", "result": 1.96}, {"measurement": "IC50", "setting": "[5]; Kv1.5 I508F", "result": "74.7 ± 5.37", "unit": "µM"}, {"measurement": "Fold change", "setting": "[6]", "result": 200}, {"measurement": "Fold change", "setting": "[6]; listed as flecamide", "result": 238}, {"measurement": "IC50", "setting": "[6]; Kv1.5 T479A", "result": "0.19 ± 0.04", "unit": "µM"}, {"measurement": "Fold change", "setting": "[7]", "result": 2.92}, {"measurement": "Fold change", "setting": "[7]; listed as flecamide", "result": 3}, {"measurement": "IC50", "setting": "[7]; Kv1.5 V505A", "result": "13.1 ± 3.58", "unit": "µM"}, {"measurement": "Fold change", "setting": "[8]; IC50 of V505F relative to WT, direction differs by drug", "result": 8.93}, {"measurement": "IC50", "setting": "[8]; Kv1.5 V505F", "result": "4.3 µM and 4.27 µM"}, {"measurement": "blocking site, electrical distance across the membrane", "setting": "Kv1.5 WT channel", "result": "~17", "unit": "%"}, {"measurement": "calculated binding site within the electric field (fractional electrical distance δ)", "setting": "Kv1.5 WT channel", "result": 0.17}]}]}
